Columns and labels:
HCV replication = details: cited from earlier work
genotype 1 HCV = experiment: HCV RNA viral load determination (COBAS AmpliPrep/COBAS TaqMan HCV Test) in a randomized, double-blind, placebo controlled, dose ranging study; type: in vivo, human; details: monotherapy 750 mg, bid; after 7 days of treatment
Method: A randomized, double-blind, placebo controlled, dose ranging study of Compound 1a and Compound 2 in adult patients with chronic hepatitis C genotype 1 was conducted. Approximately 54 treatment naïve males and females between 18 and 65 years of age (inclusive) with genotype 1 HCV infection who had not previously been treated with an interferon or investigational HCV therapeutic agent were enrolled. Approximately an additional 20 treatment patients who had failed treatment with the current standard of care (null, partial responders and relapsers) were enrolled. […] Subjects with liver cirrhosis or incomplete/transition to cirrhosis, or other forms of liver disease, anemia, HIV or HBV infection, hepatocellular carcinoma, cardiac disease or renal disease were excluded from this particular protocol, as well as pregnant or lactating women, women of childbearing potential, and male partners of women who are pregnant or lactating.
Seven groups, Groups I, II, III, IV, V, VI and VII, of subjects were studied. Blood samples were collected at time points to determine pharmacokinetics parameters, including Tmax, Cmax, Kel, T1/2, AUC, CL/F, Vd/F and accumulation ratio.
The specifics of Groups I, II, III, IV, V, VI and VII are shown in Table 1 below and pictorially in FIGS. 2 and 3. Group I included two arms with 8 subjects in Arm 1 and 8 subjects in Arm 2. […]

| Compound | inhibition of HCV replication (HCV replication) | mean log change from baseline in HCV RNA viral load (genotype 1 HCV) |
| --- | --- | --- |
| CC(C)(C)OC(=O)N[C@H]1CCCCCC=C[C@@H]2C[C@@]2(C(=O)NS(=O)(=O)C2CC2)NC(=O)[C@@H]2C[C@@H](OC(=O)N3Cc4cccc(F)c4C3)CN2C1=O [Compound 2, (1S,4R,6S,14S,18R)-4-Fluoro-1,3-dihydro-isoindole-2-carboxylic acid 14-tert-butoxycarbonylamino-4-cyclopropanesulfonylaminocarbonyl-2,15-dioxo-3,16-diaza-tricyclo[14.3.0.04,6]nonadec-7-en-18-yl ester] | effective in inhibiting HCV replication |  |
| C[C@@]1(F)[C@H](O)[C@@H](CO)O[C@H]1n1ccc(N)nc1=O [Compound 1, β-D-2′-deoxy-2′-fluoro-2′-C-methylcytidine] | effective in inhibiting HCV replication |  |
| diisobutyl ester prodrug of β-D-2′-deoxy-2′-fluoro-2′-C-methylcytidine [Compound 1a] |  | −1.3 log IU/mL |
